Assay results reported in ChEMBL document CHEMBL3045281, “Design, synthesis, and biological evaluation of new 3-hydroxy-2-oxo-3-trifluoromethylindole as potential HIV-1 reverse transcriptase inhibitors” (Med Chem Res, 2006).

Tests used:
[1] = Cytotoxicity against Chlorocebus aethiops (African green monkey) Vero cells after 72 hr by trypan blue assay; type: cell-based; conditions: chlorocebus sabaeus
[2] = molecular target: Human immunodeficiency virus type 1 reverse transcriptase (Human immunodeficiency virus 1, UniProt Q72547); assay: Inhibition of RNA-dependent DNA polymerase activity of Human immunodeficiency virus 1 recombinant reverse transcriptase expressed in Escherichia coli using poly(rA)oligo(dT) template primer after 30 min

| SMILES | IC50 [2] [µM] | CC50 at 72 h [1] [µM] |
| --- | --- | --- |
| O=C1Nc2ccccc2C1(O)C(F)(F)F (stereo not given) | 6.07 | > 650 |
| CC(=O)N1C(=O)C(O)(C(F)(F)F)c2cc(Cl)ccc21 (stereo not given) | 3.41 | > 360 |
| CN1C(=O)C(O)(C(F)(F)F)c2cc(Br)ccc21 (stereo not given) | 3.61 | > 250 |

Further lines, with some results ahead:

| IC50 [2] [µM] | SMILES | CC50 at 72 h [1] [µM] |
| --- | --- | --- |
| 8.37 | CC(=O)N1C(=O)C(O)(C(F)(F)F)c2cc(C)ccc21 (stereo not given) | > 650 |
| 7.1 | O=C1Nc2ccc(Cl)cc2C1(O)C(F)(F)F (stereo not given) | > 700 |
